Here are results for 5 compounds from patent US20160219881A1, “HERBICIDALLY ACTIVE 2-HALOGEN-4-ALKYNYL-PHENYL-PYRAZOLIDINE-DIONE OR PYRROLIDINE-DIONE DERIVATIVES” (SYNGENTA LIMITED, priority 2013, published 2016).

Assay [1] has as its system POAAN. The experiment in a line: Biological Example 3 (Test 2 glasshouse assay), post-emergence herbicidal activity. It counts as in vivo, Poa annua. How it is done: (§1) Seeds of a variety of monocotyledonous and dicotyledonous test plants are sown in standard soil in pots. The plants are cultivated for one day (for pre-emergence) or for about 12 days (range=10-13 days) (for post-emergence) under controlled conditions in a glasshouse (warm climate species at 24/18° C., cool climate species at 20/16° C., both at day/night; 16 hours light; 65% humidity). An “instant formulation”, known as the “IF50”, containing 50 g/litre (i.e. 5% w/v) of the “technical” (i.e. unformulated) active ingredient is prepared by dissolving the active ingredient in a mixture of organic solvents and emulsifier, details of which are provided in the Table below. This IF50 is then mixed with a small, variable amount of acetone to aid dissolution, before addition of a 0.2% v/v aqueous solution of the adjuvant X-77 (which is a mixture of alkyl aryl polyoxyethylene glycols and free fatty acids in isopropanol, CAS Registry number 11097-66-8), as the aqueous diluent, to form an aqueous spray solution which contains a predetermined concentration of the active ingredient (which varies depending on the application rate of the active ingredient to the plants) and 0.2% v/v of the adjuvant X-77. This aqueous spray solution is then sprayed onto the plants, after one day's cultivation (for pre-emergence) or after about 12 days' cultivation (for post-emergence). The test plants are then grown on, in a glasshouse (greenhouse) under controlled conditions (at either 24/18° C. or 20/16° C. (day/night) as mentioned above; 16 hours light; 65% humidity) and are watered twice daily. Either 15 days after application of the test compound (15 DAA) (for post-emergence), or 20 days after application of the test compound (20 DAA) (for pre-emergence), the test plants are evaluated visually, and an assessed percentage phytotoxicity score is given for each compound application on each plant species (where 100%=total damage to plant; 0%=no damage to plant).

For assay [2], the system named is Alopecurus myosuroides (ALOMY). The experiment in a line: Test 1A glasshouse assay, pre-emergence herbicidal activity. It counts as in vivo. To be noted: 312 h, 13 days after application, read-out: Pre-Emergence Herbicidal Activity (% Phytotoxicity) ALOMY. How it is done:
(§2) Seeds of a variety of test species are sown in standard soil (usually sandy soil) in pots. After cultivation for one day (pre-emergence) or after 8 days cultivation (post-emergence) under controlled conditions in a glasshouse (at 24/16° C., day/night; 14 hours light; 65% humidity), the plants are sprayed with an aqueous spray solution derived from the formulation of the technical active ingredient (compound) in acetone/water (50:50) solution containing 0.5% Tween 20 (polyoxyethylene sorbitan monolaurate, CAS RN 9005-64-5). The test plants are then grown under controlled conditions in a glasshouse (at 24/16° C., day/night; 14 hours light; 65% humidity) and watered twice daily. 13 days after application of the test compounds, for pre- and post-emergence, the test is evaluated visually for percentage phytotoxicity to each plant (where 100%=total damage to plant; 0%=no damage to plant).
(§3) Alopecurus myosuroides (ALOMY), Setaria faberi (SETFA), Echinochloa crus-galli (ECHCG), Amaranthus retroflexus (AMARE), and Abutilon theophasti Medik. (ABUTH, common English name “velvetleaf”). Of these, Alopecurus myosuroides (ALOMY), Setaria faberi (SETFA), and Echinochloa crus-galli (ECHCG) are grassy monocotyledonous weeds.
Lolium perenne (LOLPE), Triticum aestivum (TRZAW, winter wheat), Alopecurus myosuroides (ALOMY), Echinochloa crus-galli (ECHCG), and Avena fatua (AVEFA). All these are grassy monocotyledonous weeds and/or (for wheat) grassy crops.

Assay [3] relates to ZEAMX. Description: Biological Example 3 (Test 2 glasshouse assay), post-emergence herbicidal activity. It counts as in vivo. The procedure:
as §1

In assay [4] the test system is Alopecurus myosuroides (ALOMY). Description: Test 1A glasshouse assay, post-emergence herbicidal activity. Type of assay: in vivo. To be noted: 312 h, 13 days after application, read-out: Post-Emergence Herbicidal Activity (% Phytotoxicity) ALOMY. The procedure: as §2
(§4) Alopecurus myosuroides (ALOMY), Setaria faberi (SETFA), Echinochloa crus-galli (ECHCG), Amaranthus retroflexus (AMARE), and Abutilon theophasti Medik. (ABUTH, common English name “velvetleaf”). Of these, Alopecurus myosuroides (ALOMY), Setaria faberi (SETFA), and Echinochloa crus-galli (ECHCG) are grassy monocotyledonous weeds. […]

The test system of assay [5] is Echinochloa crus-galli (ECHCG). The assay is described as above. It counts as in vivo. To be noted: 312 h, 13 days after application, read-out: Post-Emergence Herbicidal Activity (% Phytotoxicity) ECHCG. The procedure:
as §2, §4

Assay [6] has as its system Abutilon theophasti Medik. (ABUTH). Described as above. It counts as in vivo. To be noted: 312 h, 13 days after application, read-out: Post-Emergence Herbicidal Activity (% Phytotoxicity) ABUTH. The procedure: as §2, §3
Assay [7] relates to Setaria faberi (SETFA). The description is as above. It counts as in vivo. Particulars: 312 h, 13 days after application, read-out: Post-Emergence Herbicidal Activity (% Phytotoxicity) SET FA. How it is done: as §2, §3
Assay [8] deals with Amaranthus retroflexus (AMARE). The description is as above. It counts as in vivo. Particulars: 312 h, 13 days after application, read-out: Post-Emergence Herbicidal Activity (% Phytotoxicity) AMARE. The procedure: as §2, §3
Assay [9] has as its system Abutilon theophasti Medik. (ABUTH). Description: Test 1A glasshouse assay, pre-emergence herbicidal activity. It counts as in vivo. Particulars: 312 h, 250 g/ha, 13 days after application, read-out: Pre-Emergence Herbicidal Activity (% Phytotoxicity) ABUTH. How it is done: as §2, §3
Assay [10] relates to Setaria faberi (SETFA). The assay is described as above. Type of assay: in vivo. Particulars: 312 h, 250 g/ha, 13 days after application, read-out: Pre-Emergence Herbicidal Activity (% Phytotoxicity) SET FA. The procedure: as §2, §3
Assay [11] relates to Amaranthus retroflexus (AMARE). Described as above. It counts as in vivo. Particulars: 312 h, 250 g/ha, 13 days after application, read-out: Pre-Emergence Herbicidal Activity (% Phytotoxicity) AMARE. How it is done: as §2, §3

Take `CC#Cc1cc(C)c(C2C(=O)N(C)N(C)C2=O)c(C)c1` [Compound A1]: the “Post-Emergence Herbicidal Activity (Percentage Phytotoxicity) POAAN” value is 50% in assay [1] (30 g/ha (rate by row order)) and 80% in [1] (125 g/ha (rate by row order)). For the same compound, the inhibition at 250 g/ha in assay [2] was 0%; in assay [4] it was 0%; in assay [5] it was 40%; in [6], 10%; in [7] it was 40%; in assay [8] it was 0%. Also, the inhibition at 250 g/ha in assay [9] worked out at 0%; in assay [10] it was 30%; in assay [11], 0%. Besides, the “Post-Emergence Herbicidal Activity (Percentage Phytotoxicity) ZEAMX” value was 90% in assay [3] (30 g/ha (rate by row order)) and 100% in [3] (125 g/ha (rate by row order)).

In the case of `CC#Cc1cc(C)c(C2C(=O)N3CCCCCN3C2=O)c(C)c1` [Compound A23, 2-(2,6-dimethyl-4-prop-1-ynyl-phenyl)-6,7,8,9-tetrahydro-5H-pyrazolo[1,2-a]diazepine-1,3-dione], the “Post-Emergence Herbicidal Activity (Percentage Phytotoxicity) POAAN” value in assay [1] (30 g/ha (rate by row order)) is 10%; in [1] (125 g/ha (rate by row order)), 70%. Further, the inhibition at 250 g/ha turned out to be 90% in assay [2]; 80% in [4]; 80% in assay [5]; 60% in assay [6]; 80% in assay [7]; 30% in assay [8]. The inhibition at 250 g/ha in [9] worked out at 10%; in assay [10], 50%; in assay [11] it was 80%. Also, the “Post-Emergence Herbicidal Activity (Percentage Phytotoxicity) ZEAMX” value came out at 0% in assay [3] (30 g/ha (rate by row order)) and 30% in [3] (125 g/ha (rate by row order)).

As to `CC#Cc1cc(C)c(C2C(=O)C(Cc3ccccn3)N(C)C2=O)c(C)c1` (centres unmarked) [Compound A50, 3-(2,6-dimethyl-4-prop-1-ynyl-phenyl)-1-methyl-5-(2-pyridylmethyl)pyrrolidine-2,4-dione], the values for the inhibition at 62.5 g/ha in assay [2] (62.5 g/ha), in assay [4] (62.5 g/ha) and in assay [5] (62.5 g/ha) were 70%, 90% and 100%, respectively. For the same compound, the inhibition at 250 g/ha in assay [2] turned out to be 90%; in assay [4], 100%; in assay [5], 100%. For the same compound, the inhibition at 15.625 g/ha in assay [4] (15.625 g/ha) was found to be 30%; in [5] (15.625 g/ha), 80%.

Consider `CC#Cc1cc(C)c(-c2c(OC(=O)C(C)(C)C)n(C)n(C)c2=O)c(C)c1` [Compound P1], for which the “Post-Emergence Herbicidal Activity (Percentage Phytotoxicity) POAAN” value in assay [1] (8 g/ha (rate by row order)) was found to be 0%; in [1] (30 g/ha (rate by row order)), 0%; in [1] (125 g/ha (rate by row order)) it was 70%. For the same compound, the inhibition at 250 g/ha worked out at 100% in assay [2]; 90% in assay [4]; 100% in assay [5]; 70% in [6]; 90% in assay [7]; 20% in assay [8]. In addition, the inhibition at 250 g/ha in [9] is 10%; in assay [10] it was 100%; in assay [11] it was 10%. Moreover, the “Post-Emergence Herbicidal Activity (Percentage Phytotoxicity) ZEAMX” value in assay [3] (8 g/ha (rate by row order)) was found to be 60%; in assay [3] (30 g/ha (rate by row order)), 70%; in assay [3] (125 g/ha (rate by row order)) it was 100%. For the same compound, the inhibition at 30 g/ha in [4] is 80%; in assay [5], 80%; in assay [6], 30%; in assay [7] it was 70%; in assay [8], 0%.

For `CC#Cc1cc(C)c(-c2c(OC(=O)C(C)(C)C)n3n(c2=O)CCOCC3)c(C)c1` [Compound P4], the entries for the “Post-Emergence Herbicidal Activity (Percentage Phytotoxicity) POAAN” value in [1] (8 g/ha (rate by row order)), in assay [1] (30 g/ha (rate by row order)) and in assay [1] (125 g/ha (rate by row order)) were 50%, 70% and 90%, respectively. The inhibition at 250 g/ha turned out to be 100% in assay [2]; 90% in assay [4]; 100% in assay [5]; 70% in assay [6]; 100% in assay [7]; 10% in assay [8]. Moreover, the inhibition at 250 g/ha in assay [9] is 80%; in assay [10], 100%; in assay [11], 100%. The entries for the “Post-Emergence Herbicidal Activity (Percentage Phytotoxicity) ZEAMX” value in assay [3] (8 g/ha (rate by row order)), in assay [3] (30 g/ha (rate by row order)) and in assay [3] (125 g/ha (rate by row order)) were 30%, 90% and 100%, respectively. Moreover, the inhibition at 30 g/ha in assay [4] came to 70%; in assay [5], 100%; in [6] it was 70%; in assay [7], 70%; in assay [8], 0%.
